# Read-outs that look alike come from different tables or passages of the source. Peptide text beside a SMILES is read from it.
# Test system: splenocytes from TFA-S100 immunized BALB/c mice
# Conditions: for activation of T cells (splenocyte proliferation, 3H thymidine incorporation / proliferation index): 0.1, 0.5 or 1 ug/mL epitope, splenocytes two weeks after TFA-S100 immunization; for recognition by DILI-specific T cells and B cells: summary of mouse splenocyte proliferation and human serum ELISA
# Procedure: FIG. 4. Splenocyte proliferation assays with candidate CYP2E1 epitopes.
# As described above, BALB/c mice were immunized with TFA-S100. Splenocytes from BALB/c mice immunized with S100 in CFA plus PT or CFA and PT alone were used as controls. Splenocyte isolation was performed using basic immunological techniques. Briefly, spleens were harvested two weeks after immunization. Spleens were mashed between two frosted glass slides, and tissue debris was removed by filtering the sample through a 70 μm cell strainer. The remaining cells were washed with sterile phosphate buffered saline/2% fetal calf serum (PBS/2% FCS) and centrifuged at 1500 rpm for 10 minutes using a refrigerated desktop centrifuge. Red cells were lysed using ACK lysing buffer. The remaining cells were washed with RPMI-10% HEPES and filtered through a 70 μm cell strainer. The splenocytes were stored in RPMI complete media with 10% FCS (RPMI-10) at a final concentration of 2.5 million cells per 1 mL of media.
# For the proliferation assays, 2.5×10^5 splenocytes (100 μl) were added to each well of a 96 well plate with 0.1 μg/mL, 0.5 μg/mL, or 1 μg/mL of a candidate epitope. As controls, media or concanavalin A (Con A) were also tested in the proliferation assays. Plates were incubated for 3 days at 37° C., 5% CO2, 95% air (humidified). Six to 18 hours prior to the 72 hour time point, the splenocytes were pulsed with 1 μCi/well ^3H thymidine (0.25 mCi/0.25 ml stock). Specifically, a 1:10 dilution (0.1 mCi/ml) of the ^3H thymidine stock solution is made by adding 200 μl of ^3H thymidine stock solution to 1800 μl of sterile RPMI. 10 μl (1 μCi) of diluted ^3H thymidine was pipetted into each well. The cells were incubated for […]. After incubation, cells were placed in −20° C. for up to 45 minutes to stop the incorporation of ^3H thymidine into proliferating cells. The splenocytes were analyzed and ^3H incorporation, an indicator of cellular proliferation, was measured.
Compound,"activation of T cells (splenocyte proliferation, 3H thymidine incorporation / proliferation index)",recognition by DILI-specific T cells and B cells,recognition by DILI-specific T cells and B cells (listed as Gly^113-Leu^133)
CC[C@H](C)[C@H](NC(=O)CN)C(=O)N[C@H](C(=O)N[C@@H](Cc1ccccc1)C(=O)N[C@@H](CC(N)=O)C(=O)N[C@@H](CC(N)=O)C(=O)NCC(=O)N1CCC[C@H]1C(=O)N[C@H](C(=O)N[C@@H](Cc1c[nH]c2ccccc12)C(=O)N[C@@H](CCCCN)C(=O)N[C@@H](CC(=O)O)C(=O)N[C@H](C(=O)N[C@@H](CCCNC(=N)N)C(=O)N[C@@H](CCCNC(=N)N)C(=O)N[C@@H](Cc1ccccc1)C(=O)N[C@@H](CO)C(=O)N[C@@H](CC(C)C)C(=O)N[C@H](C(=O)N[C@H](C(=O)N[C@@H](CC(C)C)C(=O)O)[C@@H](C)O)[C@@H](C)O)[C@@H](C)CC)[C@@H](C)O)[C@@H](C)CC [JHDN5] (H-GIIFNNGPTWKDIRRFSLTTL-OH),able to activate T cells,only candidate epitope that is recognized by DILI-specific T cells,recognized by DILI-specific T cells and B cells
CC(C)C[C@H](NC(=O)[C@H](CC(C)C)NC(=O)[C@H](CC(C)C)NC(=O)[C@H](Cc1ccccc1)NC(=O)[C@H](C)NC(=O)[C@H](C)NC(=O)[C@H](Cc1c[nH]c2ccccc12)NC(=O)[C@@H](NC(=O)[C@H](CC(C)C)NC(=O)[C@H](CC(C)C)NC(=O)[C@H](C)NC(=O)[C@@H](NC(=O)[C@@H](NC(=O)[C@@H](NC(=O)CNC(=O)[C@H](CC(C)C)NC(=O)[C@H](C)NC(=O)[C@@H](N)CO)C(C)C)[C@@H](C)O)C(C)C)C(C)C)C(=O)O [JHDN1] (H-SALGVTVALLVWAAFLLL-OH),able to activate T cells,–,–
